System: LPS induced TNF release, THP1 cells
Assay: Lipopolysaccharide-Activated THP1 Cell TNF Production Assay (LPS induced TNF release)
Type: cell-based
Conditions: Homo sapiens, THP-1, bacterial LPS, 3 h at 37° C., secreted TNF-α read by ECL
Method: Lipopolysaccharide-Activated THP1 Cell TNF Production Assay
THP1 cells are resuspended in fresh THP1 media (RPMI 1640, 10% heat-inactivated FBS, 1×PGS, 1×NEAA, plus 30 μM βME) at a concentration of 1E6/mL. One hundred microliters of cells per well are plated in a polystyrene 96-well tissue culture. One microgram per mL of bacterial LPS is prepared in THP1 media and is transferred to the wells. Test compounds are dissolved in 100% DMSO and are serially diluted 3 fold in a polypropylene 96-well microtiter plate (drug plate). HI control and LO control wells contain only DMSO. One microliter of test compound from the drug plate followed by 10 μL of LPS are transferred to the cell plate. The treated cells are induced to synthesize and secrete TNF-α at 37° C. for 3 h. Forty microliters of conditioned media are transferred to a 96-well polypropylene plate containing 110 μL of ECL buffer (50 mM Tris-HCl pH 8.0, 100 mM NaCl, 0.05% Tween 20, 0.05% NaN3 and 1% FBS) supplemented with 0.44 nM MAB610 monoclonal Ab (R&D Systems), 0.34 nM ruthenylated AF210NA polyclonal Ab (R&D Systems) and 44 μg/mL sheep anti-mouse M280 Dynabeads (Dynal). After a 2 h incubation at room temperature with shaking, the reaction is read on the ECL M8 Instrument (IGEN Inc.). A low voltage is applied to the ruthenylated TNF-α: immune complexes, which in the presence of TPA (the active component in Origlo), results in a cyclical redox reaction generating light at […]. The amount of secreted TNF-α in the presence of compound compared with that in the presence of DMSO vehicle alone (HI control) is calculated using the formula: % control (POC)=(cpd−average LO)/(average HI−average LO)*100. Data (consisting of POC and inhibitor concentration in AM) is fitted to a 4-parameter equation (y=A+((B−A)/(1+((x/C)^D))), where A is the minimum y (POC) value, B is the maximum y (POC), C is the x (cpd concentration) at the point of inflection and D is the slope factor) using a Levenburg-Marquardt non-linear regression algorithm.

IC50, ≤ 20 µM:
O=c1[nH]n(C2CCNCC2)c(-c2ccncc2)c1-c1ccc(Cl)cc1 [Example 5, 4-(4-Chloro-phenyl)-1-piperidin-4-yl-5-pyridin-4-yl-1,2-dihydro-pyrazol-3-one]
O=c1[nH]n(C2CCCNC2)c(-c2ccncc2)c1-c1ccc(Cl)cc1 (stereo not shown) [Example 6, 4-(4-Chloro-phenyl)-1-piperidin-3-yl-5-pyridin-4-yl-1,2-dihydro-pyrazol-3-one]
CN1CCC(n2[nH]c(=O)c(-c3ccc(Cl)cc3)c2-c2ccncc2)CC1 [Example 10, 4-(4-Chlorophenyl)-1-(1-methyl-piperidin-4-yl)-5-pyridin-4-yl-1,2-dihydro-pyrazol-3-one]
CN1CCCC(n2[nH]c(=O)c(-c3ccc(Cl)cc3)c2-c2ccncc2)C1 (stereo not shown) [Example 11, 4-(4-Chlorophenyl)-1-(1-methyl-piperidin-3-yl)-5-pyridin-4-yl-1,2-dihydro-pyrazol-3-one]
CC(C)N1CCC(n2[nH]c(=O)c(-c3ccc(Cl)cc3)c2-c2ccncc2)CC1 [Example 12, 4-(4-Chlorophenyl)-1-(1-isopropyl-piperidin-4-yl)-5-pyridin-4-yl-1,2-dihydro-pyrazol-3-one]
O=c1[nH][nH]c(-c2ccncc2)c1-c1ccc(Cl)c(Cl)c1 [Example 15, 4-(3,4-Dichloro-phenyl)-5-pyridin-4-yl-1,2-dihydro-pyrazol-3-one]
CC(C)n1[nH]c(=O)c(-c2ccc(Cl)c(Cl)c2)c1-c1ccncc1 [Example 16, 4-(3,4-Dichloro-phenyl)-1-isopropyl-5-pyridin-4-yl-1,2-dihydro-pyrazol-3-one]
CC(C)n1c(-c2ccncc2)c(-c2ccc(Cl)c(Cl)c2)c(=O)n1C [Example 17, 4-(3,4-Dichloro-phenyl)-1-isopropyl-2-methyl-5-pyridin-4-yl-1,2-dihydro-pyrazol-3-one]
Cn1c(=O)c(-c2ccc(Cl)c(Cl)c2)c(-c2ccncc2)n1CC1CCCCC1 [Example 19, 1-Cyclohexylmethyl-4-(3,4-dichloro-phenyl)-2-methyl-5-pyridin-4-yl-1,2-dihydro-pyrazol-3-one]
NC1CCC(n2[nH]c(=O)c(-c3ccc(Cl)cc3)c2-c2ccncc2)CC1 (stereo not shown) [Example 20, 1-(4-Aminocyclohexyl)-4-(4-chlorophenyl)-5-pyridin-4-yl-1,2-dihydropyrazol-3-one]

Reference: US6967254B2, “Substituted heterocyclic compounds and methods of use” (Amgen Inc., priority 2002, dated 2005)
